Data: patent US12448389B2, “BRM targeting compounds and associated methods of use” (Prelude Therapeutics Incorporated, priority 2020, dated 2025)

Assays:
[1] = target: T1, SMARCA4-HiBiT (Homo sapiens, UniProt P51532); assay: SMARCA4 HiBiT degradation assay in HeLa cells; type: cell-based; details: 18 hours incubation; for DC50: read-out: HeLa-HiBit-SM4 DC50; for Dmax: HeLa, read-out: HeLa-HiBit-SM4 Dmax (%)
T1 construct: SMARCA4-HiBiT knock-in Hela monoclonal cell (CS3023226); host or cells: HeLa monoclonal knock-in line (CRISPR HiBiT knock-in at the endogenous locus, heterozygous)
T1 sequence (P51532 whole entry): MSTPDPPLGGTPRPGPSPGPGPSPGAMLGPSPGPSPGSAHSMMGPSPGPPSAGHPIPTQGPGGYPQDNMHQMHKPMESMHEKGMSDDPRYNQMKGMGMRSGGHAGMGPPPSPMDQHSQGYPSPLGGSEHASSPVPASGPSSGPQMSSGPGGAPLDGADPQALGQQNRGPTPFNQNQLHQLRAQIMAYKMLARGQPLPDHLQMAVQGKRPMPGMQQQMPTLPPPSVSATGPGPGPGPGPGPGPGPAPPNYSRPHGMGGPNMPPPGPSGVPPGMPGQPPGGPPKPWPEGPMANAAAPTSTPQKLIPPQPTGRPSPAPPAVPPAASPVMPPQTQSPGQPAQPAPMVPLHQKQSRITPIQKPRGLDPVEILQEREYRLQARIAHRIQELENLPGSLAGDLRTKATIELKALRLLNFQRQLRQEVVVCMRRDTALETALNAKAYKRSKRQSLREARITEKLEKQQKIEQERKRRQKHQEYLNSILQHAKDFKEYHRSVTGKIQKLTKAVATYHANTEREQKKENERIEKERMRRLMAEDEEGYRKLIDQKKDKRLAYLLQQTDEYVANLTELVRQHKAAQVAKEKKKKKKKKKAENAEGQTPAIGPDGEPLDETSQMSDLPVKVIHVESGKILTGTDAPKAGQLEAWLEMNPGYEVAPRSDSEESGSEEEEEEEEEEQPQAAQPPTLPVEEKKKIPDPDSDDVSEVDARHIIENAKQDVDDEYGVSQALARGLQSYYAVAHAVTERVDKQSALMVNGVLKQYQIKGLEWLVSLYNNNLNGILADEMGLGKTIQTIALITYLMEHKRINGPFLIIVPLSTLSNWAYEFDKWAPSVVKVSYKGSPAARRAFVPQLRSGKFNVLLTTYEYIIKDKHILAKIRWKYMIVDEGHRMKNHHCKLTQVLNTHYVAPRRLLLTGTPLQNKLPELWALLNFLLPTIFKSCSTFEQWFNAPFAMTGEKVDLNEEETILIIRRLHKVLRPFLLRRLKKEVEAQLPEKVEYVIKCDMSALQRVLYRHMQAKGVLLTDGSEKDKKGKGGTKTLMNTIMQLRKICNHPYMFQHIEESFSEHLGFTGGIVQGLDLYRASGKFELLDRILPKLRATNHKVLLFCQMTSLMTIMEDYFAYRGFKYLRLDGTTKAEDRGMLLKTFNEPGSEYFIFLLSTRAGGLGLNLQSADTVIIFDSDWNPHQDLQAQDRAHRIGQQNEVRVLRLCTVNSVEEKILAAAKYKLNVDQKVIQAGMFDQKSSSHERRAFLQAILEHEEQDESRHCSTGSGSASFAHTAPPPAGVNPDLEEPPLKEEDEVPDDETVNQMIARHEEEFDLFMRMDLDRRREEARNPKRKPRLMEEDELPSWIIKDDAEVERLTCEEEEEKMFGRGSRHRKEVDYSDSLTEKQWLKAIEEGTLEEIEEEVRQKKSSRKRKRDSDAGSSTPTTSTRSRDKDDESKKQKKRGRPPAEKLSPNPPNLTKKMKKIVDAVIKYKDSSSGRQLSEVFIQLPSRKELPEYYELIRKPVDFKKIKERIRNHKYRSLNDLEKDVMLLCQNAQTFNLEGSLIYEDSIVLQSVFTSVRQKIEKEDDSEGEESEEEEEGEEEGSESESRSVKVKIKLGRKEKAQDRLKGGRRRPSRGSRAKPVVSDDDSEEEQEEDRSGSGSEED
Description: (§1) HiBiT peptide knock-in of SMARCA2 in LgBiT expressing HEK293T cells was performed by CRISPR-mediated tagging system as described Promega. The homozygous HiBiT knock-in on c-terminus SMARCA2 was confirmed by sanger sequence. SMARCA2-HiBiT knock-in Hela monoclonal cell (CS302366) and SMARCA4-HiBiT knock-in Hela monoclonal cell (CS3023226) were purchased from Promega. The heterozygous HiBiT-knock-in was confirmed by sanger sequence in both SMARCA2-HiBiT and SMARCA4-HiBiT monoclonal cells.
(§2) SMARCA2 HiBiT and SMARCA4 HiBiT Degradation Assay in HeLa Cells
(§3) Dispense 10 ul aliquot of prepared Hela-SMARCA2-HiBiT or Hela-SMARCA4-HiBiT cells (1:1 ratio of cells:Trypan Blue (#1450013, Bio-Rad)) onto cell counting slide (#145-0011, Bio-Rad) and obtain cell density and cell viability using cell counter (TC20, Bio-Rad). Remove appropriate volume of resuspended cells from culture flask to accommodate 2500 cells/well @20 μL/well. Transfer Hela-HiBiT cells to 50 mL conical (#430290, Corning). Spin down at 1000 rpm for 5 min using tabletop centrifuge (SPINCHRON 15, Beckman). Discard supernatant and resuspend cell pellet in modified EMEM (#30-2003, ATCC) cell culture media containing 10% FBS (F2422-500ML, Sigma), and 1×Penicillin/Streptomycin (200 g/L) (30-002-CI, Corning) to a cell density of 125,000 cells/mL. Dispense 20 μL of resuspended Hela-HiBit cells per well in 384-well TC treated plate (#12-565-343, Thermo Scientific) using standard cassette (#50950372, Thermo Scientific) on Multidrop Combi (#5840310, Thermo Scientific) inside laminar flow cabinet. Dispense test compounds onto plates using digital liquid dispenser (D300E, Tecan). Incubate plates in humidified tissue culture incubator @37° C. for 18 hours. Add 20 μL of prepared Nano-Glo® HiBiT Lytic detection buffer (N3050, Promega) to each well of 384-well plate using small tube cassette (#24073295, Thermo Scientific) on Multidrop Combi, incubate @RT for 30-60 min. Read plates on microplate reader (Envision 2105, PerkinElmer) using 384 well Ultra-Sensitive luminescence mode. Raw data files and compound information reports are swept into centralized data lake and deconvoluted using automated scripts designed by TetraScience, Inc. Data analysis, curve-fitting and reporting done in Dotmatics Informatics Suite using Screening Ultra module.

[2] = target: T2, SMARCA2-HiBiT (Homo sapiens, UniProt P51531); assay: SMARCA2 HiBiT degradation assay in HeLa cells; type: cell-based; details: 18 hours incubation; for DC50: read-out: HeLa_HiBit-SM2 DC50; for Dmax: HeLa, read-out: HeLa-HiBit-SM2 Dmax (%)
T2 construct: SMARCA2-HiBiT knock-in Hela monoclonal cell (CS302366); host or cells: HeLa monoclonal knock-in line (CRISPR HiBiT knock-in at the endogenous locus, heterozygous)
T2 sequence (P51531 whole entry): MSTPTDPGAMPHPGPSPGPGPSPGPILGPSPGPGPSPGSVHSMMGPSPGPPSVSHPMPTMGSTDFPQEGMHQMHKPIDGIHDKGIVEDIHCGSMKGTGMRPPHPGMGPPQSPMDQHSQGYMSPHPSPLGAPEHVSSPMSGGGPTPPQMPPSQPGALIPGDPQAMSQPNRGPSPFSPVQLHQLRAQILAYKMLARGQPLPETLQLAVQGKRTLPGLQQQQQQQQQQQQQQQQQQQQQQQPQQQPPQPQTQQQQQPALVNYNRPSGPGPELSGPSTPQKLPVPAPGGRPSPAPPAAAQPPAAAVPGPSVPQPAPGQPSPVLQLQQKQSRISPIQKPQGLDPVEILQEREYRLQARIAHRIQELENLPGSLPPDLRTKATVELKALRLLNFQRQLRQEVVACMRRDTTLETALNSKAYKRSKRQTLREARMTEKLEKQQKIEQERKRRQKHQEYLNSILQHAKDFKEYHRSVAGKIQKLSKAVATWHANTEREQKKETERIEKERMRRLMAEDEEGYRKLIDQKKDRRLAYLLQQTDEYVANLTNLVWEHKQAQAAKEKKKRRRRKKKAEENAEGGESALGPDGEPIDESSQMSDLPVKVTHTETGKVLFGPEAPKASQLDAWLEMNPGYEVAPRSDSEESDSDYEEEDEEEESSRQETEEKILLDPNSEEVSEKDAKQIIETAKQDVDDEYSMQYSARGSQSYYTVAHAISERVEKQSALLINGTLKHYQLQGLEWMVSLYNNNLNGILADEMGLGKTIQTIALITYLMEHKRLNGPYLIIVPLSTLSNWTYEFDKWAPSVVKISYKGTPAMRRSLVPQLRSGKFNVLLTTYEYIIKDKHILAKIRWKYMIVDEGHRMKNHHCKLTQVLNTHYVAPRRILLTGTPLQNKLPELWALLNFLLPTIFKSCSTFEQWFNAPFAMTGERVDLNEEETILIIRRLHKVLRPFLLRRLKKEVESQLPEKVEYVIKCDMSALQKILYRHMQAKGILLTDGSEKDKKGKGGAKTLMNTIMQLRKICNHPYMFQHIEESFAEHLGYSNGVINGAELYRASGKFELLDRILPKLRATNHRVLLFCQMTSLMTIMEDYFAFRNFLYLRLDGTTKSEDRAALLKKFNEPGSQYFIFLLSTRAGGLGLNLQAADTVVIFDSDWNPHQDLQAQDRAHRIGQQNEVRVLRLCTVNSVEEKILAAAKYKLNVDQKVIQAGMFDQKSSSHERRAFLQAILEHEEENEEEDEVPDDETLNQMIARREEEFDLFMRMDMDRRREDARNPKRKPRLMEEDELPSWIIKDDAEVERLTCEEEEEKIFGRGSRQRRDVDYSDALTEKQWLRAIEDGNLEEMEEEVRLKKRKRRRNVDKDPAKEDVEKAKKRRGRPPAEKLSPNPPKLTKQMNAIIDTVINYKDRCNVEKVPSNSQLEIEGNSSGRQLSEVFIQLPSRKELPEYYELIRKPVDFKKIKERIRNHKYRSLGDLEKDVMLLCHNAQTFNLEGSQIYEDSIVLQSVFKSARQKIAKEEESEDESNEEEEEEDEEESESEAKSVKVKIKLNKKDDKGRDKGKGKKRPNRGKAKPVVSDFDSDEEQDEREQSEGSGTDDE
Description: as §1, §2, §3

Row | SMILES | DC50 [1] [nM] | Dmax [1] [%] | DC50 [2] [nM] | Dmax [2] [%]
1 | O=C1CCC(N2C(=O)c3ccc(N4CC[C@H](CN5CCN(C(=O)N6CCN7c8cc(-c9ccccc9O)nnc8NC[C@H]7C6)CC5)[C@@H](F)C4)cc3C2=O)C(=O)N1 (stereo partly drawn) [Example 206, 2-(2,6-dioxopiperidin-3-yl)-5-[(3R,4R)-3-fluoro-4-[[4-[(10S)-4-(2-hydroxyphenyl)-1,5,6,8,12-pentazatricyclo [8.4.0.02,7]tetradeca-2(7),3,5-triene-12-carbonyl]piperazin-1-yl]methyl]piperidin-1-yl]isoindole-1,3-dione] | 10 to 100 | 50 to 75 | < 10 | > 85
2 | O=C1CCC(N2C(=O)c3ccc(N4C[C@@H]5CN(C6CCC(C(=O)N7CCN8c9cc(-c%10ccccc%10O)nnc9NC[C@H]8C7)CC6)C[C@H]5C4)cc3C2=O)C(=O)N1 (stereo partly drawn) [Example 98, 2-(2,6-dioxopiperidin-3-yl)-5-((3aS,6aS)-5-(4-((S)-2-(2-hydroxyphenyl)-6,6a,7,8,9,10-hexahydro-5H-pyrazino[1′,2′:4,5]pyrazino[2,3-c]pyridazine-8-carbonyl)cyclohexyl)hexahydropyrrolo[3,4-c]pyrrol-2(1H)-yl) isoindoline-1,3-dione] | < 10 | > 85 | < 10 | 75 to 85
3 | CC1(CN2C[C@@H]3[C@@H](CN4CCN5c6cc(-c7ccccc7O)nnc6NC[C@H]5C4)[C@@H]3C2)CCN(c2ccc3c(c2)C(=O)N(C2CCC(=O)NC2=O)C3=O)C1 (stereo partly drawn) [Example 151, 2-(2,6-dioxopiperidin-3-yl)-5-(3-(((1R,5S,6r)-6-(((S)-2-(2-hydroxyphenyl)-5,6,6a,7,9,10-hexahydro-8H-pyrazino[1′,2′:4,5]pyrazino[2,3-c]pyridazin-8-yl)methyl)-3-azabicyclo[3.1.0]hexan-3-yl)methyl)-3-methylpyrrolidin-1-yl)isoindoline-1,3-dione] | 10 to 100 | 50 to 75 | < 10 | 75 to 85
4 | O=C1CCC(N2C(=O)c3ccc(N4CCC(CNC56CCC(C(=O)N7CCN8c9cc(-c%10ccccc%10O)nnc9NC[C@H]8C7)(CC5)CC6)CC4)cc3C2=O)C(=O)N1 (stereo partly drawn) [Example 81, 2-(2,6-dioxopiperidin-3-yl)-5-(4-(((4-((S)-2-(2-hydroxyphenyl)-6,6a,7,8,9,10-hexahydro-5H-pyrazino[1′,2′:4,5]pyrazino[2,3-c]pyridazine-8-carbonyl)bicyclo[2.2.2]octan-1-yl)amino)methyl)piperidin-1-yl)isoindoline-1dione] | < 10 | 75 to 85 | < 10 | 75 to 85
5 | CN(C(=O)N1CCN2c3cc(-c4ccccc4O)nnc3NC[C@H]2C1)C1CCN(CC2CCN(c3ccc4c(c3)CN(C3CCC(=O)NC3=O)C4=O)CC2)CC1 (stereo partly drawn) [Example 139, (6aS)-N-(1-((1-(2-(2,6-dioxopiperidin-3-yl)-1-oxoisoindolin-5-yl)piperidin-4-yl)methyl)piperidin-4-yl)-2-(2-hydroxyphenyl)-N-methyl-5,6,6a,7,9,10-hexahydro-8H-pyrazino[1′,2′:4,5]pyrazino[2,3-c]pyridazine-8-carboxamide] | < 10 | > 85 | < 10 | > 85
6 | CC1CN(C(=O)N2CCN3c4cc(-c5ccccc5O)nnc4NC[C@H]3C2)CCN1CC1CCN(c2ccc3c(c2)C(=O)N(C2CCC(=O)NC2=O)C3)CC1 (stereo partly drawn) [Example 106, 3-(6-(4-((4-((S)-2-(2-hydroxyphenyl)-6,6a,7,8,9,10-hexahydro-5H-pyrazino[1′,2′:4,5]pyrazino[2,3-c]pyridazine-8-carbonyl)-2-methylpiperazin-1-yl)methyl)piperidin-1-yl)-1-oxoisoindolin-2-yl)piperidine-2,6-dione] | < 10 | 75 to 85 | < 10 | > 85
7 | O=C1CCC(N2C(=O)c3ccc(Nc4cnn(CCN5CCC(N6CCN7c8cc(-c9ccccc9O)nnc8NC[C@H]7C6)CC5)c4)cc3C2=O)C(=O)N1 (stereo partly drawn) [Example 245, 2-(2,6-dioxopiperidin-3-yl)-5-((1-(2-(4-((S)-2-(2-hydroxyphenyl)-5,6,6a,7,9,10-hexahydro-8H-pyrazino[1′,2′:4,5]pyrazino[2,3-c]pyridazin-8-yl)piperidin-1-yl)ethyl)-1H-pyrazol-4-yl)amino)isoindoline-1,3-dione] | 10 to 100 | 50 to 75 | < 10 | 50 to 75
8 | O=C1CCC(N2Cc3ccc(N4CCC(CN5CCC(CN6CCN7c8cc(-c9ccccc9O)nnc8NC[C@H]7C6)CC5CO)CC4)cc3C2=O)C(=O)N1 (stereo partly drawn) [Example 235, 3-(6-(4-((2-(hydroxymethyl)-4-(((S)-2-(2-hydroxyphenyl)-5,6,6a,7,9,10-hexahydro-8H-pyrazino[1′,2′:4,5]pyrazino[2,3-c]pyridazin-8-yl)methyl)piperidin-1-yl)methyl)piperidin-1-yl)-1-oxoisoindolin-2-yl)piperidine-2,6-dione] | < 10 | > 85 | < 10 | > 85

Now from value to compound:

Row | DC50 [1] [nM] | Dmax [1] [%] | DC50 [2] [nM] | Dmax [2] [%] | SMILES
9 | 10 to 100 | 75 to 85 | < 10 | > 85 | CC1CN(CC2CCN(C(=O)N3CCN4c5cc(-c6ccccc6O)nnc5NC[C@H]4C3)CC2)CCN1c1ccc2c(c1)C(=O)N(C1CCC(=O)NC1=O)C2=O (stereo partly drawn) [Example 272, 2-(2,6-dioxopiperidin-3-yl)-5-(4-((1-((S)-2-(2-hydroxyphenyl)-6,6a,7,8,9,10-hexahydro-5H-pyrazino[1′,2′:4,5]pyrazino[2,3-c]pyridazine-8-carbonyl)piperidin-4-yl)methyl)-2-methylpiperazin-1-yl)isoindoline-1,3-dione]
10 | 10 to 100 | 75 to 85 | < 10 | 75 to 85 | O=C1CCC(N2C(=O)c3ccc(OC4CCN(CC5CCN(C(=O)N6CCN7c8cc(-c9ccccc9O)nnc8NC[C@H]7C6)CC5)CC4)cc3C2=O)C(=O)N1 (stereo partly drawn) [Example 145, 2-(2,6-dioxopiperidin-3-yl)-5-((1-((1-((S)-2-(2-hydroxyphenyl)-6,6a,7,8,9,10-hexahydro-5H-pyrazino[1′,2′:4,5]pyrazino[2,3-c]pyridazine-8-carbonyl)piperidin-4-yl)methyl)piperidin-4-yl)oxy)isoindoline-1,3-dione]
11 | < 10 | 50 to 75 | < 10 | 50 to 75 | CN(CCCN1CCN2c3cc(-c4ccccc4O)nnc3NC[C@H]2C1)CC1CCN(c2ccc3c(c2)C(=O)N(C2CCC(=O)NC2=O)C3=O)CC1 (stereo partly drawn) [Example 40, 2-(2,6-dioxopiperidin-3-yl)-5-(4-(((3-((S)-2-(2-hydroxyphenyl)-5,6,6a,7,9,10-hexahydro-8H-pyrazino[1′,2′:4,5]pyrazino[2,3-c]pyridazin-8-yl)propyl)(methyl)amino)methyl)piperidin-1-yl)isoindoline-1,3-dione]
12 | < 10 | > 85 | < 10 | > 85 | CN(CCN1CCC(N2CCN3c4cc(-c5ccccc5O)nnc4NC[C@H]3C2)CC1)C1CCN(c2ccc3c(c2)C(=O)N(C2CCC(=O)NC2=O)C3=O)CC1 (stereo partly drawn) [Example 158, 2-(2,6-dioxopiperidin-3-yl)-5-(4-((2-(4-((S)-2-(2-hydroxyphenyl)-5,6,6a,7,9,10-hexahydro-8H-pyrazino[1′,2′:4,5]pyrazino[2,3-c]pyridazin-8-yl)piperidin-1-yl)ethyl)(methyl)amino)piperidin-1-yl)isoindoline-1,3-dione]
13 | 10 to 100 | 50 to 75 | < 10 | 50 to 75 | CN(CCCCN1CCC(CN2CCN3c4cc(-c5ccccc5O)nnc4NC[C@H]3C2)CC1)c1ccc2c(c1)C(=O)N(C1CCC(=O)NC1=O)C2=O (stereo partly drawn) [Example 227, 2-(2,6-dioxopiperidin-3-yl)-5-((4-(4-(((S)-2-(2-hydroxyphenyl)-5,6,6a,7,9,10-hexahydro-8H-pyrazino[1′,2′:4,5]pyrazino[2,3-c]pyridazin-8-yl)methyl)piperidin-1-yl)butyl)(methyl)amino)isoindoline-1,3-dione]
